# Test results: patent publication US20030228581A1, “Diagnosis and treatment for late onset neurodegenerative disorder” (priority 2002, published 2003)
# How the values were obtained:
# [1] = system: Hq mutant and wild type granule cells; set-up: dose or concentration left out as unconfirmed; settings: 24 hours
# [2] = system: primary neuronal granule cell cultures from Hq mutant mice; assay: Glutamate sensitivity of primary granule cell cultures; format: cell-based, mouse; set-up: unit of the concentration uncertain
# Excerpt: Low doses of glutamate cause neuronal excitotoxicity via NMDA receptors, while higher doses of glutamate trigger intracellular oxidative stress through the release of endogenous peroxides.
# [3] = system: mutant and wildtype embryonic cortical cells; settings: hydrogen peroxide for 24 hours, any peroxide concentration
# Protocol: To determine if increased peroxide sensitivity due to loss of wild-type levels of AIF is cell-specific, primary cultures of mutant and wildtype embryonic cortical cells were treated under the identical conditions used for granule cell cultures.
# [4] = system: primary neuronal granule cell cultures from Hq mutant mice; settings: 20 and 50 mM hydrogen peroxide, 5 hours, PI staining
# Protocol: To determine if decrease in AIF levels leads to increased sensitivity to exogenous peroxides, primary neuronal granule cell cultures from Hq mutant mice were treated with increasing doses of hydrogen peroxide (0, 5, 20, 50 mM) for 5 hours and then stained with propidium iodide (PI) to identify apoptotic cells.
smiles,measurement,setting,value
COc1cc([C@@H]2c3cc4c(cc3[C@@H](O[C@@H]3O[C@@H]5CO[C@@H](C)O[C@H]5[C@H](O)[C@H]3O)[C@H]3COC(=O)[C@H]23)OCO4)cc(OC)c1O [etoposide],"cell death, Hq mutant versus wild type granule cells",[1],no significant difference in cell death
N[C@@H](CCC(=O)O)C(=O)O [glutamate],Hq mutant granule cell death,[2]; higher doses of glutamate (2000 (unit uncertain)),significant increases in Hq mutant granule cell death
same,"cell viability, mutant versus wild type granule cells",[2]; low concentrations of glutamate (100 (unit uncertain)),Cell viability was similar
OO [hydrogen peroxide],"viability, mutant versus wild type cortical cells",[3],no difference in viability
same,"cell death, Hq mutant versus wild-type cultures",[4],Significantly more cell death
CN[C@@H]1C[C@H]2O[C@@](C)([C@@H]1OC)n1c3ccccc3c3c4c(c5c6ccccc6n2c5c31)C(=O)NC4 [staurosporine],"cell death, Hq mutant versus wild type granule cells",[1],no significant difference in cell death
